From patent US8835125B2, “Methods and compositions for selective labeling of different biotinylated targets within multicolor or multilabel assays” (Affymetrix, Inc., priority 2011, dated 2014)

Assays:
SAPE [1] = molecular target: T1, SAPE (Streptomyces avidinii, UniProt P22629); assay: stability of DMT protected biotin against SAPE staining after 3 hour ligation (FIG. 13); conditions: array probes after 3 hours ligation reaction, no acid treatment
streptavidin = streptavidin (Streptomyces avidinii, UniProt P22629); conditions: association constant; cited from earlier work
SAPE [2] = molecular target: T1, SAPE; assay: displacement of SAPE from desthiobiotin by biotin solution and re-staining (FIG. 15); assay type: binding; conditions: 1 mM biotin solution, then restaining with SAPE
Experimental: The next step was to displace the streptavidin-phycoerythrin conjugate bound to the desthiobiotin of the ligated A/T probes. This was done by washing the array with solution biotin (1 mM) in NaCl (150 mM) for 4 hours at room temperature. The displaced streptavidin-phycoerythrin conjugate previous bound to the desthiobiotinylated probes was then removed.
FIGS. 15(A)-15(C) contain images of sub-regions with sets of probes to test the effectiveness of binding and displacement of desthiobiotin with biotin. Specifically, the probe sets within the images are ligated with desthiobiotin labeled probes. […] Washing was also performed to remove the displaced biotin-SAPE conjugate. FIG. 15(C) contains an image after subsequent restraining with SAPE.

T1 sequence (P22629 25-183): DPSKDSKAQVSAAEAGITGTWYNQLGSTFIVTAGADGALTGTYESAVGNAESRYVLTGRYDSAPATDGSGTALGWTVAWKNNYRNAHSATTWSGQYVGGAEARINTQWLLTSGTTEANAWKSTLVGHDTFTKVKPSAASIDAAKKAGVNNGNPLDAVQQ
Sequence of streptavidin (P22629 25-183, species assumed): as the sequence (P22629 25-183) above

| SMILES | intensity after SAPE staining (SAPE [1]) | binding affinity with streptavidin (streptavidin) | displacement of SAPE stain and re-staining (SAPE [2]) |
| --- | --- | --- | --- |
| O=C(O)CCCC[C@@H]1SC[C@@H]2NC(=O)N[C@@H]21 [biotin] | extremely strong | 1e+15 M⁻¹ |  |
| C[C@@H]1NC(=O)N[C@@H]1CCCCCC(=O)O [desthiobiotin] |  | 5e+13 M⁻¹ | effectively displace and remove a labeling stain from desthiobiotin |
